Where two headings read alike, the source gives them in different places. Non-standard residues stand in square brackets, D forms with d. Residues, ends and D or L forms follow the SMILES beside them. dPhe(3,4-Cl2) = N[C@H](Cc1ccc(Cl)c(Cl)c1)C(=O)O; dPhe(4-Br) = N[C@H](Cc1ccc(Br)cc1)C(=O)O; dPhe(4-Me) = Cc1ccc(C[C@@H](N)C(=O)O)cc1; Tic = O=C(O)[C@@H]1Cc2ccccc2CN1
Key:
mMC4R [1] = biological target: T1, mMC4R (Mus musculus, UniProt P56450); assay: β-galactosidase cAMP reporter assay, agonist pharmacology in HEK293 cells stably expressing mMC4R; format: cell-based; conditions: for mMC4R percent maximal stimulation relative to NDP-MSH (partial agonist): relative to maximal NDP-MSH signal; for mMC4R agonist activity: full agonist = >90% of maximal NDP-MSH signal, inactive = <20% at 100 µM
T1 construct: expressed in transfected cells
Method: (§1) Peptides were synthesized manually with microwave irradiation using standard Fmoc synthesis techniques and purified using semi-preparative reverse-phase high-pressure liquid-chromatography (RP-HPLC). […] Agonist pharmacology was measured at the mMC3R, mMC4R, and mMC5R using a colorimetric β-galactosidase assay that measures cAMP production. Agonist pharmacology was assessed at the mMC1R using the Amplified Luminescent Proximity Homogenous Assay Screen (AlphaScreen, PerkinElmer), as previously described. The MC2R is only stimulated by ACTH, and was not examined in this study. For both assays, HEK293 cells stably expressing the mMCRs were used.
(§2) The peptide ligands were assessed for pharmacological activity at the mMC3R, mMC4R, and mMC5R using a β-galactosidase assay. Briefly, HEK293 cells stably expressing the MC3R, MC4R, or MC5R were plated into a 10 cm dish and grown to 40% confluency. The HEK293 cells were transfected with 4 µg of CRE/β-galactosidase using the calcium-phosphate method, as previously described. Cells (5000 to 15,000) were plated on collagen-treated Nunclon Delta Surface 96-well plates (Thermo Fisher Scientific) and incubated at 37 °C with 5% CO2. […] Plates were stored at −80 °C for up to two weeks.
(§3) Thawed plates were assessed for protein content and assayed for β-galactosidase activity. Relative protein concentration was determined by adding 10 µL of cell lysate to 200 µL of a 1:5 dilution of Bio Rad G250 protein dye in a 96-well plate.
(§4) The EC50 and pA2 values represent the mean of duplicate replicates performed in at least three independent experiments. The EC50 and pA2 values and their associated standard errors (SEM) were determined by fitting the data to a nonlinear least-squares analysis using the PRISM program (v4.0, GraphPad Inc., San Diego, CA, USA). The ligands were assayed as TFA salt and not corrected for peptide content.

mMC3R = biological target: T2, mMC3R (Mus musculus, UniProt P33033); assay: β-galactosidase cAMP reporter assay, agonist pharmacology in HEK293 cells stably expressing mMC3R; format: cell-based; conditions: for EC50: β-galactosidase cAMP, HEK293, mean ± SEM, apparent EC50 for partial agonists; for decreased agonist potency at the mMC3R compared to KNS2-22-4: ratio of EC50 to KNS2-22-4
T2 construct: expressed in transfected cells
Method: as §1, §2, §3, §4

mMC5R = biological target: T3, mMC5R (Mus musculus, UniProt P41149); assay: β-galactosidase cAMP reporter assay, agonist pharmacology in HEK293 cells stably expressing mMC5R; format: cell-based; conditions: for EC50: β-galactosidase cAMP, HEK293, mean ± SEM, apparent EC50 for partial agonists
T3 construct: expressed in transfected cells
Method: as §1, §2, §3, §4

mMC1R = biological target: T4, mMC1R (Mus musculus, UniProt Q01727); assay: AlphaScreen cAMP assay, agonist pharmacology in HEK293 cells stably expressing mMC1R; format: cell-based; conditions: for EC50: AlphaScreen cAMP, HEK293, mean ± SEM, at least three experiments; for potency increase at the mMC1R relative to Ac-His-DPhe-Arg-Trp-NH2: compared with KNS2-153
T4 construct: expressed in transfected cells
Method: as §1
Peptide ligands were dissolved in DMSO at stock concentrations of 10^−2 M. To assess the pharmacological activity of the tetrapeptides at the mMC1R, HEK293 cells stably expressing the mMC1R were stimulated with the ligands using the cAMP AlphaScreen assay (PerkinElmer) according to the manufacturer’s instruction and as previously described.
Cells were dislodged with Versene (Gibco) at 37 °C, and 10,000 cells/well were plated in a 384-well plate (Optiplate) with freshly made stimulation buffer (Hank’s Balanced Salt Solution (HBSS, 1×), 0.5 mM 3-isobutyl-1-methylxanthine (IBMX), 5 mM HEPES, and 0.1% bovine serum albumin (BSA), pH = 7.4) with 0.5 μg anti-cAMP acceptor beads per well.
Plates were incubated for an additional 2 h in the dark. Post incubation, the plates were read by an EnSpire plate reader (PerkinElmer, Waltham, MA, USA).
as §4

mMC4R [2] = biological target: T1, mMC4R; assay: β-galactosidase cAMP reporter assay, antagonist Schild analysis with NDP-MSH as agonist; format: cell-based
Method: as §1, §2, §3, §4

MC4R = conditions: previous studies; cited from earlier work
MC3R = conditions: previous studies; cited from earlier work
[3] = biological target: mouse melanocortin-4 receptor (mouse) (UniProt P56450)
[4] = biological target: mouse melanocortin-5 receptor (mouse) (UniProt P41149)
[5] = biological target: mouse melanocortin-3 receptor (mouse) (UniProt P33033)
[6] = biological target: mouse melanocortin-1 receptor (mouse) (UniProt Q01727)
Chain of mouse melanocortin-1 receptor (mouse) (Q01727 whole entry): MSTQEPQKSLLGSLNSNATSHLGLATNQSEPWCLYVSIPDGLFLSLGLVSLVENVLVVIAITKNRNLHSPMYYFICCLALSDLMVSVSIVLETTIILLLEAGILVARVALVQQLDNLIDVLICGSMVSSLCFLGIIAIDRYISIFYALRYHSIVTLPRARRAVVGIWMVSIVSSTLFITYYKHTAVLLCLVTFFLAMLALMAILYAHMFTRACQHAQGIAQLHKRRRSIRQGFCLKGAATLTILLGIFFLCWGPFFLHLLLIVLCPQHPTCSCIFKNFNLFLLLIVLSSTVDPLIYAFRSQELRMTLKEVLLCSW

T1 sequence (P56450 whole entry): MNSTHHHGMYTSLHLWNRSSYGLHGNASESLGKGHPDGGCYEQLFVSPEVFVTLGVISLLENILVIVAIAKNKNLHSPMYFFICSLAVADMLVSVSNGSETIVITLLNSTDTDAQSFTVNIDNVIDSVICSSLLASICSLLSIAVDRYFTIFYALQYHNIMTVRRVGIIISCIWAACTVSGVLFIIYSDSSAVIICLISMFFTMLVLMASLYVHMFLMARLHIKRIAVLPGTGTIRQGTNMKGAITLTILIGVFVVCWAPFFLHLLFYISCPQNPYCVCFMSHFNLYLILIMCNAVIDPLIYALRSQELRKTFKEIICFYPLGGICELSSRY
T3 sequence (P41149 whole entry): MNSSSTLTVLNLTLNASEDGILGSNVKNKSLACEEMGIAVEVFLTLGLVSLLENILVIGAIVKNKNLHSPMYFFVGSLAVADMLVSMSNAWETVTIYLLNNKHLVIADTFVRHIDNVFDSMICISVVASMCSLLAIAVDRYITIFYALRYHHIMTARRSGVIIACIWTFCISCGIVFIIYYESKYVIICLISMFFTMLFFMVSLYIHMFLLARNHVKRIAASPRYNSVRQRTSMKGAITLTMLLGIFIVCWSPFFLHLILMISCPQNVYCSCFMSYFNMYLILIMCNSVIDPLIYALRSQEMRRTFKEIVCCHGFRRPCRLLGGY
T4 sequence (Q01727 whole entry): as the sequence (Q01727 whole entry) above
T2 sequence (P33033 whole entry): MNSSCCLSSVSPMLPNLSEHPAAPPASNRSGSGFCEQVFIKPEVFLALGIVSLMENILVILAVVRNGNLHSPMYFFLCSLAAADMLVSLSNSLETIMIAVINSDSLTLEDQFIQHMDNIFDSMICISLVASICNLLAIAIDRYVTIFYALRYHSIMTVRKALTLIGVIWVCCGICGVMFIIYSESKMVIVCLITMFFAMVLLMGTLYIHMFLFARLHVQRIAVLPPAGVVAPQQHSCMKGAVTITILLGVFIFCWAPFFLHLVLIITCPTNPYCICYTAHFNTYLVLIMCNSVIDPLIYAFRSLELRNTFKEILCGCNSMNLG
Chain of mouse melanocortin-4 receptor (mouse) (P56450 whole entry): as the sequence (P56450 whole entry) above
Chain of mouse melanocortin-5 receptor (mouse) (P41149 whole entry): as the sequence (P41149 whole entry) above
Chain of mouse melanocortin-3 receptor (mouse) (P33033 whole entry): as the sequence (P33033 whole entry) above

Row | EC50 (mMC4R [1]) [nM] | mMC4R percent maximal stimulation relative to NDP-MSH (partial agonist) (mMC4R [1]) [% NDP] | EC50 (mMC3R) [nM] | EC50 (mMC5R) [nM] | EC50 (mMC1R) [nM] | potency increase at the mMC1R relative to Ac-His-DPhe-Arg-Trp-NH2 (mMC1R) [fold] | Compound | decreased agonist potency at the mMC3R compared to KNS2-22-4 (mMC3R) [fold] | mMC4R agonist activity (mMC4R [1]) | further results
1 | 700 | 50 | 110 ± 20 | 17 ± 4 | 1 ± 0.3 | ≥ 10 | CC(=O)N[C@@H](Cc1c[nH]cn1)C(=O)N[C@@H](CCCNC(=N)N)C(=O)N[C@H](Cc1ccc(C)cc1)C(=O)N1Cc2ccccc2C[C@H]1C(N)=O [KNS2-23-7, Ac-His-Arg-(pMe)DPhe-Tic-NH2] (Ac-HR[dPhe(4-Me)][Tic]-NH2) | 8 |  | 
2 | > 100000 |  | 4200 | 1000 ± 500 | 40 ± 10 |  | CC(=O)N[C@@H](Cc1c[nH]cn1)C(=O)N[C@@H](CCCNC(=N)N)C(=O)N[C@H](Cc1ccc(O)cc1)C(=O)N1Cc2ccccc2C[C@H]1C(N)=O [KNS2-23-9, Ac-His-Arg-DTyr-Tic-NH2] (Ac-HR[dY][Tic]-NH2) |  | did not possess agonist or antagonist activity | mMC4R antagonist activity (mMC4R [2]; Schild design, agonist NDP-MSH, in the concentrations assayed): did not possess agonist or antagonist activity; Kb (mMC4R [2]; read-out: mMC4R pA2 (converted)): > 3160 nM; mMC3R percent maximal stimulation relative to NDP-MSH (partial agonist) (mMC3R; relative to maximal NDP-MSH signal): 85 % NDP

More lines, now with the values behind:

Row | Compound | EC50 (mMC4R [1]) [nM] | mMC4R percent maximal stimulation relative to NDP-MSH (partial agonist) (mMC4R [1]) [% NDP] | EC50 (mMC3R) [nM] | EC50 (mMC5R) [nM] | EC50 (mMC1R) [nM] | potency increase at the mMC1R relative to Ac-His-DPhe-Arg-Trp-NH2 (mMC1R) [fold] | decreased agonist potency at the mMC3R compared to KNS2-22-4 (mMC3R) [fold] | mMC4R agonist activity (mMC4R [1]) | further results
3 | CC(=O)N[C@@H](Cc1c[nH]cn1)C(=O)N[C@@H](CCCNC(=N)N)C(=O)N[C@H](Cc1ccc(Br)cc1)C(=O)N1Cc2ccccc2C[C@H]1C(N)=O [KNS2-22-3, Ac-His-Arg-(pBr)DPhe-Tic-NH2] (Ac-HR[dPhe(4-Br)][Tic]-NH2) | 290 | 55 | 90 ± 20 | 9.7 ± 0.5 | 0.7 ± 0.3 | ≥ 10 |  |  | 
4 | Ac-His-(pI)DPhe-Arg-Trp-NH2 |  |  |  |  |  |  |  |  | MC4R agonist activity (MC4R): full agonist; MC3R activity (MC3R): partial agonist with antagonist activity
5 | NDP-MSH (peptide) |  |  |  |  |  |  |  |  | agonist EC50, β-galactosidase cAMP reporter assay in HEK293 cells stably expressing mMC4R [3]: 0.32 nM; agonist EC50, β-galactosidase cAMP reporter assay in HEK293 cells stably expressing mMC5R [4]: 3.4 nM; agonist EC50, β-galactosidase cAMP reporter assay in HEK293 cells stably expressing mMC3R [5]: 0.52 nM; agonist EC50, cAMP AlphaScreen assay in HEK293 cells stably expressing mMC1R [6]: 0.009 nM
6 | CC(=O)N[C@@H](Cc1c[nH]cn1)C(=O)N[C@@H](CCCNC(=N)N)C(=O)N[C@H](Cc1ccc(Cl)c(Cl)c1)C(=O)N1Cc2ccccc2C[C@H]1C(N)=O [KNS2-23-4, Ac-His-Arg-(3,4-diCl)DPhe-Tic-NH2] (Ac-HR[dPhe(3,4-Cl2)][Tic]-NH2) | > 100000 |  | 400 ± 100 | 70 ± 7 | 5 ± 2 |  | 30 | did not result in stimulation | Kb (mMC4R [2]): 708 nM; mMC4R pA2 (mMC4R [2]; Schild analysis, agonist NDP-MSH, <5.5 = no antagonist potency at highest range (10,000, 5000, 1000, 500 nM)): 6.2; agonist selectivity for the mMC3R over the mMC4R (mMC3R; mMC3R versus mMC4R agonist potency): at least 100 fold; decreased agonist potency at the mMC5R compared to KNS2-22-4 (mMC5R; ratio of EC50 to KNS2-22-4): 14 fold; decreased agonist potency at the mMC1R compared to KNS2-22-4 (mMC1R; ratio of EC50 to KNS2-22-4): 7 fold
